According to patent US20110275094A1, “PHOSPHORYLATED FMS-RELATED TYROSINE KINASE 3 BIOMARKER ASSAY” (priority 2008, published 2011):
Like-named read-outs stand apart in the source and are kept apart here.

Legend:
[1] = tested on: peripheral blast / bone marrow blast
Method: The samples were then flash frozen in −70° C. A small number of patient samples were frozen unlysed and lysed afterwards.

[2] = AC220 phase I study, tolerability; type: in vivo; settings: QD, patients of phase I study
Source text: Thus, the pFLT3 ELISA of the invention successfully yielded useful pharmacodynamic data that not only guided the decision to change the dosing schedule from intermittent to continuous, but also guided the selection of the starting dose level for the 28-day continuous schedule, when information on dose limiting toxicity or maximum tolerated dose was still unavailable.

## CC(C)(C)c1cc(NC(=O)Nc2ccc(-c3cn4c(n3)sc3cc(OCCN5CCOCC5)ccc34)cc2)no1 [AC220]
[1]; Patient A
  bone marrow blast percentage: appeared to reduce bone marrow blast percentage
[1]; Patient D
  protocol defined response: CRp/PR
[1]; Patient E
  protocol defined response: CRi
[2]
  maximum tolerated dose: > 300 mg per day
